Experimental data taken from ChEMBL document CHEMBL1201862, “PubChem BioAssay data set” (2004).
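96-well plates; 48 h exposure; 5 concentrations. Endpoints by linear interpolation between flanking doses. Not reached: highest tested concentration assigned. Abbreviation: GI50, concentration required for 50% inhibition of growth.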 The source made the active and inactive calls. Cut-off read from the data, not from the text of the source: active = GI50 up to about 1.1 µM and inactive = higher.

What was measured:
Assay in all cases: NCI-60 cell line screen, 48 h
CAKI-1 = test system: CAKI-1
CCRF-CEM = test system: CCRF-CEM
DU-145 = test system: DU-145
HCT-15 = test system: HCT-15
IGROV-1 = test system: IGROV-1
MDA-MB-231 = test system: MDA-MB-231
MDA-MB-435 = test system: MDA-MB-435
MDA-N = test system: MDA-N
MOLT-4 = test system: MOLT-4
NCI-H226 = test system: NCI-H226
NCI-H460 = test system: NCI-H460
NCI-H522 = test system: NCI-H522
OVCAR-5 = test system: OVCAR-5
RPMI-8226 = test system: RPMI-8226
SF-295 = test system: SF-295
SK-MEL-28 = test system: SK-MEL-28
SK-MEL-2 = test system: SK-MEL-2
SK-MEL-5 = test system: SK-MEL-5
SNB-75 = test system: SNB-75
UO-31 = test system: UO-31

Measured: GI50

NC(=O)c1nnsc1NN=O
inactive: CAKI-1 > 100 µM | CCRF-CEM > 100 µM | DU-145 > 100 µM | IGROV-1 > 100 µM | MDA-MB-231 > 100 µM | MDA-MB-435 > 100 µM | MDA-N > 100 µM | MOLT-4 > 100 µM | NCI-H226 > 100 µM | NCI-H460 > 100 µM | NCI-H522 > 100 µM | OVCAR-5 > 100 µM | RPMI-8226 > 100 µM | SF-295 > 100 µM | SK-MEL-28 > 100 µM | SK-MEL-2 > 100 µM | SK-MEL-5 > 100 µM | SNB-75 94.8 µM | UO-31 > 100 µM
> 100 µM: HCT-15

O=C(NC(Nc1ccc(F)c(Cl)c1)(C(F)(F)F)C(F)(F)F)OCc1ccccc1
inactive: CAKI-1 34.6 µM | CCRF-CEM 15.8 µM | DU-145 24.4 µM | IGROV-1 39 µM | MDA-MB-231 11.7 µM | MDA-MB-435 32.1 µM | MDA-N 19.7 µM | MOLT-4 26.4 µM | NCI-H226 > 100 µM | NCI-H460 85.1 µM | NCI-H522 22.7 µM | OVCAR-5 > 100 µM | RPMI-8226 20.4 µM | SF-295 28.2 µM | SK-MEL-28 > 100 µM | SK-MEL-2 69.3 µM | SK-MEL-5 44.1 µM | SNB-75 36.9 µM | UO-31 19.8 µM
22.4 µM: HCT-15

COc1cc2c3c(c4cc(OC)c(OC)cc4c2cc1OC)[C@H](O)[C@@H]1CCCN1C3
active: CAKI-1 < 0.0324 µM | CCRF-CEM < 0.0272 µM | DU-145 < 0.0243 µM | IGROV-1 < 0.0275 µM | MDA-MB-231 < 0.0342 µM | MDA-MB-435 < 0.0265 µM | MDA-N < 0.0363 µM | MOLT-4 < 0.01 µM | NCI-H226 0.0494 µM | NCI-H460 < 0.0226 µM | NCI-H522 < 0.0378 µM | OVCAR-5 < 0.0316 µM | RPMI-8226 < 0.0253 µM | SF-295 < 0.0222 µM | SK-MEL-28 < 0.0284 µM | SK-MEL-2 < 0.0167 µM | SK-MEL-5 < 0.0259 µM | SNB-75 < 0.0312 µM | UO-31 < 0.0337 µM
< 0.0239 µM: HCT-15

CC1=C(C(=O)OCCc2ccc([N+](=O)[O-])cc2)C(c2ccccc2[N+](=O)[O-])C(C(=O)OC(C)C)=C(C)N1 (stereo not given)
4.21 µM: HCT-15
inactive: CAKI-1 3.4 µM | CCRF-CEM 2.36 µM | DU-145 9.04 µM | IGROV-1 7.05 µM | MDA-MB-231 4.91 µM | MDA-MB-435 5 µM | MDA-N 4.51 µM | MOLT-4 1.99 µM | NCI-H226 5.45 µM | NCI-H460 2.6 µM | NCI-H522 2.18 µM | OVCAR-5 31.1 µM | RPMI-8226 2.93 µM | SF-295 2.74 µM | SK-MEL-28 7.57 µM | SK-MEL-2 3.86 µM | SK-MEL-5 2.24 µM | SNB-75 4.24 µM | UO-31 4.2 µM

O/N=C1/Nc2ccccc2C(=S)N2CSCC12 (stereo not given)
inactive: CAKI-1 > 100 µM | CCRF-CEM 20.2 µM | DU-145 > 100 µM | IGROV-1 > 100 µM | MDA-MB-231 > 100 µM | MDA-MB-435 19.4 µM | MDA-N 18.3 µM | MOLT-4 > 100 µM | NCI-H226 > 100 µM | NCI-H460 17.3 µM | NCI-H522 37 µM | OVCAR-5 > 100 µM | RPMI-8226 > 100 µM | SF-295 63.1 µM | SK-MEL-28 > 100 µM | SK-MEL-2 > 100 µM | SK-MEL-5 23.4 µM | SNB-75 16.4 µM | UO-31 > 100 µM
> 100 µM: HCT-15
